Assay [1] deals with proton-gated currents in cortical neurons. It counts as cell-based, mouse. The conditions noted are these: conditioning pH 7.2.
Assay [2] has as its target T1, mouse ASIC1a (Mus musculus, UniProt Q6NXK8).
T1 sequence (Q6NXK8 1-526): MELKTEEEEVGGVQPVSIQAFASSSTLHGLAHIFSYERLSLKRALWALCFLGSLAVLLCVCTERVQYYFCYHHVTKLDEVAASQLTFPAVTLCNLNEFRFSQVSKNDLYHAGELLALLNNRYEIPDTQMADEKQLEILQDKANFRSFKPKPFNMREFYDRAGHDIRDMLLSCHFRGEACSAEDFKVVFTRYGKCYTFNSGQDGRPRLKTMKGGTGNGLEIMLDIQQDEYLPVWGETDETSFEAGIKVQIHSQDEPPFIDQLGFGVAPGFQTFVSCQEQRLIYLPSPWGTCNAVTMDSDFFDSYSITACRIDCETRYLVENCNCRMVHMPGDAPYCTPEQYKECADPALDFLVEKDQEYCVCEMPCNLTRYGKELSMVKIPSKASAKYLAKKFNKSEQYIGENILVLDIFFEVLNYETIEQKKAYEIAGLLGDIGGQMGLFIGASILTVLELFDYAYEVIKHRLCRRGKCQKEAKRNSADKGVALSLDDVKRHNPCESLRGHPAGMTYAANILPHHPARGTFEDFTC
Description: Competition of Big Dynorphin with PcTx1 for ASIC1a modulation, Xenopus oocytes. It counts as cell-based. The conditions noted are these: conditioning pH 7.2; PcTx1 0.2 µM or Big Dynorphin 1 µM alone.

The subject of assay [3] is ASIC1a:F352L. Description: Steady-state desensitization of mutant ASIC1a:F352L. Particulars: peptide alone; conditioning pH 6.65; n = 3. The format is cell-based, mouse.
The subject of assay [4] is ASIC1a. Particulars: cited from earlier work; for effect on steady-state desensitization of mouse ASIC1a: ref Sherwood and Askwith, 2008.

These results are taken from publication PMC2802056 (The Journal of neuroscience : the official journal of the …, 2009).

Take `C=CCN1CC[C@]23c4c5ccc(O)c4O[C@H]2C(=O)CC[C@@]3(O)[C@H]1C5` [Naloxone]: the “effect of antagonist alone on proton-gated current” value in assay [1] is on record as “neither of which had any affect on proton-gated currents alone”.
In the case of PcTx1, the “effect on ASIC1a steady-state desensitization, peptide alone” value in assay [2] is “steady-state desensitization induced by pH 7.2 was enhanced and acid-evoked current was reduced”. Besides, the “effect on steady-state desensitization of ASIC1a:F352L” value in assay [3] is listed as “PcTx1 alone had no effect”. In assay [4] (ref Escoubas et al., 2000, Chen et al., 2006a, Salinas et al., 2006), the “effect on ASIC1a steady-state desensitization” value is listed as “specifically binds the extracellular domain of ASIC1 to enhance the proton-sensitivity of steady-state desensitization”.
With FRRFamide, the “effect on steady-state desensitization of mouse ASIC1a” value in assay [4] is “prevented steady-state desensitization of mouse ASIC1a”.
On to FMRFamide, for which the “competition with PcTx1” value in assay [4] (ref Salinas et al., 2006) is on record as “does not compete with PcTx1”. Further, the “effect on steady-state desensitization of mouse ASIC1a” value in assay [4] is recorded as “but not FMRFamide, prevented steady-state desensitization of mouse ASIC1a”.
